Reference: patent US20070010670A1, “Nitrogen-containing fused ring compounds and use thereof” (Japan Tobacco Inc., priority 2004, published 2007)

The compounds below were run against T1, CYP2C9 (Homo sapiens, UniProt P11712) (assay: CYP inhibitory test using human liver microsome). Details: model substrate diclofenac, 37° C. 10 min, read-out: CYP2C9 inhibition IC50.
T1 construct: Human liver microsome (20 mg protein/mL, 5 μL, Xenotech LLC, purchased from Lenexa KS); tissue Xenotech LLC; host or cells: human liver microsome
Format: in vitro ADME
Procedure: Human liver microsome (20 mg protein/mL, 5 μL, Xenotech LLC, purchased from Lenexa KS) was suspended in 100 mM potassium phosphate buffer (70 μL, pH 7.4), mixed with a solution (0.5 μL) of the Example compound dissolved in DMSO and preincubated at 37° C. for 5 min. NADPH producing system coenzyme solution (β-nicotinamide adenine dinucleotide phosphate: 5.2 mM, D-glucose-6-phosphate: 13.2 mM, magnesium chloride: 13.2 mM, glucose-6-phosphate dehydrogenase: 1.8 U/mL) 25 μL, and a model substrate (CYP3A4: midazolam 1 mM, CYP2D6: bufuralol 1 mM, CYP2C9: diclofenac 2 mM) 0.5 μL dissolved in DMSO were added to start the reaction. After incubation at 37° C. for 10 min., acetonitrile (200 μL) containing an internal standard substance (propranolol 1 μM) was added and the mixture was centrifuged (room temperature, 3000 rpm, 20 min). The amount of the metabolite produced from each model substrate in the supernatant was measured by high performance liquid chromatography/mass spectrometry (LC/MS/MS) and each CYP enzyme activity was determined. The concentration showing 50% inhibition (IC50) was calculated relative to the enzyme activity without addition of Example compound (DMSO 0.5 μL added) as 100%.

T1 sequence (P11712 whole entry): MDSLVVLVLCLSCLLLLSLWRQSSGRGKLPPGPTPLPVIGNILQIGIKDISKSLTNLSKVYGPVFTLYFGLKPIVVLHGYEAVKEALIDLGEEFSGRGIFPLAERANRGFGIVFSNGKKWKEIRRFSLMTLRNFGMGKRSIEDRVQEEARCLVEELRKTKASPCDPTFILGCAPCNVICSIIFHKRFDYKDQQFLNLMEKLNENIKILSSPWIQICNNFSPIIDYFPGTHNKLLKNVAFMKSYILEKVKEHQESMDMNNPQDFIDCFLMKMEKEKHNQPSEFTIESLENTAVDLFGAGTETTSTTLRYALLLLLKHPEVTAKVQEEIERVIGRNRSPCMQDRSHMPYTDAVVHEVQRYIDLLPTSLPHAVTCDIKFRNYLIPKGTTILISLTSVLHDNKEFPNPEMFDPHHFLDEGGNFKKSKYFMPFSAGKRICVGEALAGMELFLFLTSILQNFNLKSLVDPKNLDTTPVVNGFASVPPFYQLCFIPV

For O=C(c1ccc(O)c(Cl)c1)N1CCOc2ccccc21 [Example 1, (3-chloro-4-hydroxyphenyl)-(2,3-dihydrobenzo[1,4]oxazin-4-yl)-methanone], which IC50 is on record?
Its IC50 is > 50 µM.

Which IC50 does the source give for O=C(c1ccc(O)c(Br)c1)N1CCOc2ccccc21 [Example 2, (3-bromo-4-hydroxyphenyl)-(2,3-dihydrobenzo[1,4]oxazin-4-yl)-methanone] here?
The IC50 was 37 µM.

How did the IC50 turn out when O=C(c1cc(Cl)c(O)c(Cl)c1)N1CCOc2ccccc21 [Example 3, (3,5-dichloro-4-hydroxyphenyl)-(2,3-dihydrobenzo[1,4]oxazin-4-yl)-methanone] was run?
Its IC50 is 27 µM.

How did the IC50 turn out when O=C(c1cc(Br)c(O)c(Br)c1)N1CCOc2ccccc21 [Example 4, (3,5-dibromo-4-hydroxyphenyl)-(2,3-dihydrobenzo[1,4]oxazin-4-yl)-methanone] was run?
Its IC50 is 9 µM.

For O=C(c1cc(I)c(O)c(I)c1)N1CCOc2ccccc21 [Example 5, (2,3-dihydrobenzo[1,4]oxazin-4-yl)-(4-hydroxy-3,5-diiodophenyl)-methanone], which IC50 is on record?
Its IC50 is 2 µM.

O=C(c1cc(F)c(O)c(F)c1)N1CCOc2ccccc21 [Example 6, (3,5-difluoro-4-hydroxyphenyl)-(2,3-dihydrobenzo[1,4]oxazin-4-yl)-methanone] was tested. Which IC50 did it give?
The IC50 was > 50 µM.

For Cc1cc(C(=O)N2CCOc3ccccc32)cc(C)c1O [Example 7, (2,3-dihydrobenzo[1,4]oxazin-4-yl)-(4-hydroxy-3,5-dimethylphenyl)-methanone], which IC50 is on record?
The IC50 was 4 µM.

With O=C(c1cc(Cl)c(O)c(Cl)c1)N1CCSc2ccccc21 [Example 8, (3,5-dichloro-4-hydroxyphenyl)-(2,3-dihydrobenzo[1,4]thiazin-4-yl)-methanone] as the compound, how does the IC50 read?
The IC50 was 19 µM.

How did the IC50 turn out when O=C(c1cc(Cl)c(O)c(Cl)c1)N1CCS(=O)(=O)c2ccccc21 [Example 10, (3,5-dichloro-4-hydroxyphenyl)-(1,1-dioxo-2,3-dihydro-1H-1λ^6-benzo[1,4]thiazin-4-yl)-methanone] was run?
Its IC50 is > 50 µM.

Oc1c(Cl)cc(C(=S)N2CCOc3ccccc32)cc1Cl [Example 11, (3,5-dichloro-4-hydroxyphenyl)-(2,3-dihydrobenzo[1,4]oxazin-4-yl)-methanethione] was tested. Which IC50 did it give?
The IC50 was 12 µM.

With Cc1ccc2c(c1)N(C(=O)c1cc(Cl)c(O)c(Cl)c1)CCO2 [Example 12, (3,5-dichloro-4-hydroxyphenyl)-(6-methyl-2,3-dihydrobenzo[1,4]oxazin-4-yl)-methanone] as the compound, how does the IC50 read?
Its IC50 is 22 µM.

Which IC50 does the source give for Cc1ccc2c(c1)OCCN2C(=O)c1cc(Cl)c(O)c(Cl)c1 [Example 13, (3,5-dichloro-4-hydroxyphenyl)-(7-methyl-2,3-dihydrobenzo[1,4]oxazin-4-yl)-methanone] here?
Its IC50 is 18 µM.

With Cc1cccc2c1N(C(=O)c1cc(Cl)c(O)c(Cl)c1)CCO2 [Example 14, (3,5-dichloro-4-hydroxyphenyl)-(5-methyl-2,3-dihydrobenzo[1,4]oxazin-4-yl)-methanone] as the compound, how does the IC50 read?
The IC50 was 16 µM.

For Cc1cccc2c1OCCN2C(=O)c1cc(Cl)c(O)c(Cl)c1 [Example 15, (3,5-dichloro-4-hydroxyphenyl)-(8-methyl-2,3-dihydrobenzo[1,4]oxazin-4-yl)-methanone], which IC50 is on record?
Its IC50 is 6 µM.

Which IC50 does the source give for O=C(c1cc(Cl)c(O)c(Cl)c1)N1CCOc2ccc3ccccc3c21 [Example 16, (3,5-dichloro-4-hydroxyphenyl)-(2,3-dihydronaphtho[2,1-b][1,4]oxazin-1-yl)-methanone] here?
The IC50 was 10 µM.

COc1ccc2c(c1)N(C(=O)c1cc(Cl)c(O)c(Cl)c1)CCO2 [Example 17, (3,5-dichloro-4-hydroxyphenyl)-(6-methoxy-2,3-dihydrobenzo[1,4]oxazin-4-yl)-methanone] was tested. Which IC50 did it give?
Its IC50 is 33 µM.

Which IC50 does the source give for COc1ccc2c(c1)OCCN2C(=O)c1cc(Cl)c(O)c(Cl)c1 [Example 18, (3,5-dichloro-4-hydroxyphenyl)-(7-methoxy-2,3-dihydrobenzo[1,4]oxazin-4-yl)-methanone] here?
Its IC50 is 9 µM.

How did the IC50 turn out when O=C(c1cc(Cl)c(O)c(Cl)c1)N1CCOc2ccc(O)cc21 [Example 19, (3,5-dichloro-4-hydroxyphenyl)-(6-hydroxy-2,3-dihydrobenzo[1,4]oxazin-4-yl)-methanone] was run?
The IC50 was > 50 µM.

For O=C(c1cc(Cl)c(O)c(Cl)c1)N1CCOc2cc(O)ccc21 [Example 20, (3,5-dichloro-4-hydroxyphenyl)-(7-hydroxy-2,3-dihydrobenzo[1,4]oxazin-4-yl)-methanone], which IC50 is on record?
Its IC50 is 13 µM.

With CCN(CC)S(=O)(=O)c1ccc2c(c1)N(C(=O)c1cc(Cl)c(O)c(Cl)c1)CCO2 [Example 21, 4-(3,5-dichloro-4-hydroxybenzoyl)-3,4-dihydro-2H-benzo[1,4]oxazine-6-sulfonic acid diethylamide] as the compound, how does the IC50 read?
Its IC50 is 17 µM.

Which IC50 does the source give for O=S(=O)(c1cc(Cl)c(O)c(Cl)c1)N1CCOc2ccccc21 [Example 22, 2,6-dichloro-4-(2,3-dihydrobenzo[1,4]oxazine-4-sulfonyl)phenol] here?
The IC50 was 1 µM.

For CC(C)(C)c1ccc2c(c1)N(C(=O)c1cc(Cl)c(O)c(Cl)c1)CCO2 [Example 23, (6-tert-butyl-2,3-dihydrobenzo[1,4]oxazin-4-yl)-(3,5-dichloro-4-hydroxyphenyl)-methanone], which IC50 is on record?
The IC50 was 19 µM.

Which IC50 does the source give for O=C1COc2ccccc2N1C(=O)c1cc(Cl)c(O)c(Cl)c1 [Example 24, 4-(3,5-dichloro-4-hydroxybenzoyl)-4H-benzo[1,4]oxazin-3-one] here?
The IC50 was > 50 µM.

Which IC50 does the source give for NS(=O)(=O)c1ccc2c(c1)N(C(=O)c1cc(Cl)c(O)c(Cl)c1)CCO2 [Example 25, 4-(3,5-dichloro-4-hydroxybenzoyl)-3,4-dihydro-2H-benzo[1,4]oxazine-6-sulfonamide] here?
Its IC50 is > 50 µM.

Which IC50 does the source give for O=C(c1cc(Cl)c(O)c(Cl)c1)N1CCCc2ccccc21 [Example 26, (3,5-dichloro-4-hydroxyphenyl)-(3,4-dihydro-2H-quinolin-1-yl)-methanone] here?
The IC50 was 13 µM.

O=C(c1cc(Cl)c(O)c(Cl)c1)N1CCCCc2ccccc21 [Example 27, (3,5-dichloro-4-hydroxyphenyl)-(2,3,4,5-tetrahydrobenzo[b]azepin-1-yl)-methanone] was tested. Which IC50 did it give?
The IC50 was 21 µM.

Which IC50 does the source give for O=C(c1cnc(O)c(Cl)c1)N1CCOc2ccccc21 [Example 29, (5-chloro-6-hydroxypyridin-3-yl)-(2,3-dihydrobenzo[1,4]oxazin-4-yl)-methanone] here?
The IC50 was > 50 µM.

Which IC50 does the source give for O=C(c1cc([N+](=O)[O-])c(O)c([N+](=O)[O-])c1)N1CCOc2ccccc21 [Example 30, (2,3-dihydrobenzo[1,4]oxazin-4-yl)-(4-hydroxy-3,5-dinitrophenyl)-methanone] here?
The IC50 was > 50 µM.

How did the IC50 turn out when O=C(c1cc(Cl)c(O)c([N+](=O)[O-])c1)N1CCOc2ccccc21 [Example 31, (3-chloro-4-hydroxy-5-nitrophenyl)-(2,3-dihydrobenzo[1,4]oxazin-4-yl)-methanone] was run?
Its IC50 is 20 µM.

For CC(C)c1cccc2c1OC(C(C)C)CN2C(=O)c1cc(Cl)c(O)c(Cl)c1 (centres unmarked) [Example 32, (3,5-dichloro-4-hydroxyphenyl)-(2,8-diisopropyl-2,3-dihydrobenzo[1,4]oxazin-4-yl)-methanone], which IC50 is on record?
The IC50 was 10 µM.

How did the IC50 turn out when O=C(c1cc(Cl)c(O)c(Cl)c1)N1CCOc2ccc(S(=O)(=O)N3CCCC3)cc21 [Example 33, (3,5-dichloro-4-hydroxyphenyl)-[6-(pyrrolidine-1-sulfonyl)-2,3-dihydrobenzo[1,4]oxazin-4-yl]-methanone] was run?
The IC50 was 4 µM.

How did the IC50 turn out when CCNS(=O)(=O)c1ccc2c(c1)N(C(=O)c1cc(Cl)c(O)c(Cl)c1)CCO2 [Example 34, 4-(3,5-dichloro-4-hydroxybenzoyl)-3,4-dihydro-2H-benzo[1,4]oxazine-6-sulfonic acid ethylamide] was run?
The IC50 was 11 µM.
